{"source": "ChEMBL document CHEMBL4706667", "about": "“Click synthesis of 1,2,3-triazole based imidazoles: Antitubercular evaluation, molecular docking and HSA binding studies” (Bioorg Med Chem Lett, 2021)", "key": {"Vero": {"tested_on": "Vero", "test": "Cytotoxicity against African green monkey Vero cells assessed as reduction in cell viability measured after 72 hrs by MTT assay", "type": "cell-based", "details": "Chlorocebus sabaeus; call rule not given here"}, "[1]": {"tested_on": "Mycobacterium tuberculosis", "test": "Antitubercular activity against Mycobacterium tuberculosis H37Rv assessed as bacterial growth inhibition incubated for 28 days by agar dilution method", "type": "functional", "details": "672 h, time 28 day"}, "Albumin [2]": {"biological_target": "T1, Albumin (Homo sapiens, UniProt P02768)", "T1 sequence (P02768 whole entry)": "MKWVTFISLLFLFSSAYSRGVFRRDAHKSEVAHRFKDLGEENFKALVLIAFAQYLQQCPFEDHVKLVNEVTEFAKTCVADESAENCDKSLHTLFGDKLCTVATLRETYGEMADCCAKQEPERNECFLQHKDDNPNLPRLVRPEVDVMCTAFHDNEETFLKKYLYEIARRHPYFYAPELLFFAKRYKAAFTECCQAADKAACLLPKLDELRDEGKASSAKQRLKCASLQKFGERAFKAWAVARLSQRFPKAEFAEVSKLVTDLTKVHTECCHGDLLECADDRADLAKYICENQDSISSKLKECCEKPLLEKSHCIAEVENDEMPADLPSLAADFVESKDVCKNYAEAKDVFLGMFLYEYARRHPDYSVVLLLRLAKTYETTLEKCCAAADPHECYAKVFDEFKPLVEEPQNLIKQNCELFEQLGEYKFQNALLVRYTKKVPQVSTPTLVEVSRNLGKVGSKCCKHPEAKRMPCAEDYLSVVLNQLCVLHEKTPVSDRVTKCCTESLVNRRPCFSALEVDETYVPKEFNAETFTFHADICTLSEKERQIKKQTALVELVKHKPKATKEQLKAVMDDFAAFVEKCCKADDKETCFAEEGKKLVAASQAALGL", "test": "Binding affinity to human serum albumin assessed as critical distance with 50% energy transfer between protein and compound by FRET assay", "type": "ADME", "details": "isolated protein"}, "Albumin [3]": {"biological_target": "T1, Albumin", "test": "Binding affinity to human serum albumin assessed as quenching of intrinsic fluorescence at 2.5 to 15 uM and 298 K by fluorescence spectroscopy", "type": "ADME", "details": "isolated protein, dose 2.5-15 µM"}, "Albumin [4]": {"biological_target": "T1, Albumin", "test": "Binding affinity to human serum albumin assessed as quenching constant", "type": "ADME", "details": "isolated protein"}, "Albumin [5]": {"biological_target": "T1, Albumin", "test": "Binding affinity to human serum albumin assessed as Stem-Volmer quenching constant", "type": "ADME", "details": "isolated protein"}, "Albumin [6]": {"biological_target": "T1, Albumin", "test": "Binding affinity to human serum albumin assessed as binding constant", "type": "ADME", "details": "isolated protein"}, "Albumin [7]": {"biological_target": "T1, Albumin", "test": "Binding affinity to human serum albumin at protein to compound molar ratio of 1:1 by fluorescence spectroscopy", "type": "ADME", "details": "isolated protein"}, "Albumin [8]": {"biological_target": "T1, Albumin", "test": "Binding affinity to human serum albumin assessed as distance between the acceptor and donor by FRET assay", "type": "ADME", "details": "isolated protein"}}, "note": "pIC50: −log10 of the molar value.", "data": [{"compound": "COc1ccc(-n2cc(CNC(=O)c3c[nH]c(-c4ccccc4)n3)nn2)cc1", "values": [{"measurement": "pIC50", "setting": "Vero", "result": 3.41}, {"measurement": "MIC", "setting": "[1]", "result": 10.6, "unit": "µM"}]}, {"compound": "NNC(=O)c1ccncc1", "note": "[ISONIAZID]", "values": [{"measurement": "pIC50", "setting": "Vero", "result": "< 3.34"}, {"measurement": "MIC", "setting": "[1]", "result": 0.36, "unit": "µM"}]}, {"compound": "O=C(NCc1cn(-c2ccc(O)cc2)nn1)c1c[nH]c(-c2ccccc2)n1", "values": [{"measurement": "pIC50", "setting": "Vero", "result": 3.55}, {"measurement": "MIC", "setting": "[1]", "result": 5.19, "unit": "µM"}]}, {"compound": "Cc1ccc(-n2cc(CNC(=O)c3c[nH]c(-c4ccccc4)n3)nn2)cc1", "values": [{"measurement": "pIC50", "setting": "Vero", "result": 3.39}, {"measurement": "MIC", "setting": "[1]", "result": 19.5, "unit": "µM"}]}, {"compound": "NC(=O)c1ccc(-n2cc(CNC(=O)c3c[nH]c(-c4ccccc4)n3)nn2)cc1", "values": [{"measurement": "Activity", "setting": "Albumin [2]", "result": 1.49, "unit": "nm"}, {"measurement": "Activity", "setting": "Albumin [3]", "result": "Active"}, {"measurement": "Kq", "setting": "Albumin [4]", "result": "8.36 10^12L/mol/s"}, {"measurement": "KSV", "setting": "Albumin [5]", "result": "5.02 10^4L/mol"}, {"measurement": "pIC50", "setting": "Vero", "result": 3.70}, {"measurement": "Kb", "setting": "Albumin [6]", "result": "2.58 10^3L/mol"}, {"measurement": "MIC", "setting": "[1]", "result": 1.47, "unit": "µM"}, {"measurement": "Activity", "setting": "Albumin [7]", "result": "Active"}, {"measurement": "Activity", "setting": "Albumin [8]", "result": 2.09, "unit": "nm"}]}, {"compound": "Nc1ccc(-n2cc(CNC(=O)c3c[nH]c(-c4ccccc4)n3)nn2)cc1", "values": [{"measurement": "Activity", "setting": "Albumin [2]", "result": 1.81, "unit": "nm"}, {"measurement": "Activity", "setting": "Albumin [3]", "result": "Active"}, {"measurement": "Kq", "setting": "Albumin [4]", "result": "8.11 10^12L/mol/s"}, {"measurement": "KSV", "setting": "Albumin [5]", "result": "4.38 10^4L/mol"}, {"measurement": "pIC50", "setting": "Vero", "result": 3.63}, {"measurement": "Kb", "setting": "Albumin [6]", "result": "2.16 10^3L/mol"}, {"measurement": "MIC", "setting": "[1]", "result": 2.03, "unit": "µM"}, {"measurement": "Activity", "setting": "Albumin [7]", "result": "Active"}, {"measurement": "Activity", "setting": "Albumin [8]", "result": 2.36, "unit": "nm"}]}]}
